Laboratory results taken from patent publication US9066518B2, “Heterocyclic compounds as pesticides” (Bayer CropScience AG, priority 2009, dated 2015).

tested on: not listed separately; test: physchem; conditions: not given

| SMILES | chromatographic logP | logP |
| --- | --- | --- |
| c1cnc(-c2cccc(-c3cnn(-c4cccnc4)c3)n2)nc1 [Example 1, 2-[6-(1-Pyridin-3-yl-1H-pyrazol-4-yl)pyridin-2-yl]pyrimidine] | 1.36 | 1.52 |
| c1cncc(-n2cc(-c3cccc(-c4ncon4)n3)cn2)c1 [Example 5, 2-[1,2,4]Oxadiazol-3-yl-6-(1-pyridin-3-yl-1H-pyrazol-4-yl)pyridine] |  | 1.54 |
| c1cncc(-n2cc(-c3cccc(-c4nccnn4)n3)cn2)c1 [Example 7, 3-[6-(1-Pyridin-3-yl-1H-pyrazol-4-yl)pyridin-2-yl]-[1,2,4]triazine] |  | 1.32 |

tested on: caterpillars of the armyworm (Spodoptera frugiperda); test: Spodoptera frugiperda test (spray treatment); assay type: in vivo; conditions: application rate 500 g/ha; after 7 days; maize leaf discs
Method: (§1) Solvents: 78 parts by weight of acetone
(§2) • 1.5 parts by weight of dimethylformamide Emulsifier: 0.5 part by weight of alkylaryl polyglycol ether
To produce a suitable preparation of active compound, 1 part by weight of active compound is mixed with the stated amounts of solvents and emulsifier, and the concentrate is diluted with emulsifier-containing water to the desired concentration. Discs of maize leaves (Zea mays) are sprayed with an active compound preparation of the desired concentration and, after drying, populated with caterpillars of the armyworm (Spodoptera frugiperda).
After 7 days, the effect in % is determined. 100% means that all caterpillars have been killed; 0% means that none of the caterpillars has been killed.

| SMILES | activity (effect in %, caterpillars killed) [%] |
| --- | --- |
| Cn1c(C(F)(F)F)nn(-c2cccc(-c3cnn(-c4cccnc4)c3)n2)c1=O [Example 16] | 100 |
| COC(=O)CN(C)c1cccc(-c2cnn(-c3cccnc3)c2)n1 [Example 32] | 100 |

tested on: green peach aphid (Myzus persicae); test: Myzus test (spray treatment); assay type: in vivo; conditions: foliar, 144 h, application rate 500 g/ha, after 6 days, Chinese cabbage leaf discs, read-out: activity (effect in %, aphids killed)
Method: as §1
• 1.5 parts by weight of dimethylformamide Emulsifier 0.5 part by weight of alkylaryl polyglycol ether
To produce a suitable preparation of active compound, 1 part by weight of active compound is mixed with the stated amounts of solvents and emulsifier, and the concentrate is diluted with emulsifier-containing water to the desired concentration. Discs of leaves of Chinese cabbage (Brassica pekinensis) which are infested by all stages of the green peach aphid (Myzus persicae) are sprayed with an active compound preparation of the desired concentration.
After 6 days, the effect in % is determined. 100% means that all aphids have been killed; 0% means that none of the aphids has been killed.

| SMILES | pest or weed control at 500 g/ha [%] |
| --- | --- |
| Cn1c(C(F)(F)F)nn(-c2cccc(-c3cnn(-c4cccnc4)c3)n2)c1=O [Example 16] | 90 |
| FC(F)(F)c1ccc(-c2cnn(-c3cccnc3)c2)nc1 [Example 22] | 100 |
| COC(=O)CN(C)c1cccc(-c2cnn(-c3cccnc3)c2)n1 [Example 32] | 100 |
| c1cnc(-c2cccc(-c3cnn(-c4cncnc4)c3)n2)nc1 [Example 34] | 100 |
| CC(=O)NC(NO)c1cccc(-c2cnn(-c3cccnc3)c2)n1 (centres unmarked) [Example 78] | 100 |
| Cc1cnn(-c2cccc(-c3cnn(-c4cccnc4)c3)n2)c1 [Example 79] | 100 |
| CCOc1cc(OCC)nc(-c2nccc(-c3cnn(-c4cccnc4)c3)n2)n1 [Example 82] | 100 |
| CN(C)C(=O)c1nc(-c2cnn(-c3cccnc3)c2)cs1 [Example 83] | 100 |
| c1cncc(-n2cc(-c3cccc(C4=NCCO4)n3)cn2)c1 [Example 84] | 100 |
| COCC(=O)c1cccc(-c2cnn(-c3cccnc3)c2)n1 [Example 85, 2-Methoxy-1-[6-(1-pyridin-3-yl-1H-pyrazol-4-yl)pyridin-2-yl]ethanone] | 100 |
| Nc1cccc(-c2cnn(-c3cccnc3)c2)n1 [Example 86] | 100 |
| O=C(NCC(F)(F)F)c1ccc(-c2cnn(-c3cccnc3)c2)nc1 [Example 87] | 90 |
| N#Cc1cncc(-n2cc(-c3cccc(-c4ncccn4)n3)cn2)c1 [Example 88] | 100 |
| O=c1ccccn1-c1cccc(-c2cnn(-c3cccnc3)c2)n1 [Example 89] | 100 |
| c1cncc(-n2cc(-c3cccc(C4OCC5(CCC5)O4)n3)cn2)c1 (centres unmarked) [Example 90] | 100 |
| COC(=N)c1cccc(-c2cnn(-c3cccnc3)c2)n1 [Example 91] | 100 |
| COCC(F)c1cccc(-c2cnn(-c3cccnc3)c2)n1 (centres unmarked) [Example 92] | 90 |
| c1cnc(-c2ccnn2-c2cnn(-c3cccnc3)c2)nc1 [Example 93] | 100 |

| SMILES | pest or weed control at 500 g/ha [%] |
| --- | --- |
| CC(=O)Nc1cccc(-c2cnn(-c3cccnc3)c2)n1 [Example 94] | 100 |
| c1cncc(-n2cc(-c3nccs3)cn2)c1 [Example 95] | 90 |
| c1cncc(-n2cc(-c3cccc(-c4nnn[nH]4)n3)cn2)c1 [Example 96] | 90 |
| N#CCNC(=O)c1ccc(-c2cnn(-c3cccnc3)c2)nc1 [Example 97] | 90 |
| c1cncc(-n2cc(-c3cc[nH]n3)cn2)c1 [Example 98, 1′-(Pyridin-3-yl)-1H,1′H-3,4′-bipyrazole] | 100 |
| CCOC(=O)c1cccc(-c2cnn(-c3cccnc3)c2)n1 [Example 99] | 100 |
| CN1CCN(C(=O)c2cccc(-c3cnn(-c4cccnc4)c3)n2)CC1 [Example 100] | 100 |
| c1cncc(-n2cc(-c3ccncc3)cn2)c1 [Example 101] | 100 |
| O=[N+]([O-])c1cnc(-n2ccc(-c3cnn(-c4cccnc4)c3)n2)nc1 [Example 102] | 100 |
| O=C(Nc1cccc(-c2cnn(-c3cccnc3)c2)n1)C(F)(F)F [Example 103] | 90 |
| Fc1cccc(-c2cnn(-c3cccnc3)c2)n1 [Example 105] | 80 |
| Nc1cccc(-c2cnn(-c3cncc(F)c3)c2)n1 [Example 106] | 90 |
| FC(F)(F)c1cccc(-c2cnn(-c3cncnc3)c2)n1 [Example 107] | 90 |
| N#Cc1cccc(-c2cnn(-c3cncc(F)c3)c2)n1 [Example 108] | 90 |
| O=C(NCC(F)(F)F)c1cnc(-c2cnn(-c3cccnc3)c2)cc1C(F)(F)F [Example 109] | 90 |
| O=Cc1cccc(-c2cnn(-c3cccnc3)c2)n1 [Example 110] | 80 |
| c1cncc(-n2cc(-c3cnn(-c4cccnc4)c3)cn2)c1 [Example 112] | 80 |

same assay, conditions: in Brassica rapa, foliar, 144 h, read-out: activity (effect in %, aphids killed)

| SMILES | pest or weed control at 500 g/ha [%] |
| --- | --- |
| c1cnc(-c2cccc(-c3cnn(-c4cccnc4)c3)n2)nc1 [Example 1, 2-[6-(1-Pyridin-3-yl-1H-pyrazol-4-yl)pyridin-2-yl]pyrimidine] | 100 |
| c1cncc(-n2cc(-c3cccc(-c4ncon4)n3)cn2)c1 [Example 5, 2-[1,2,4]Oxadiazol-3-yl-6-(1-pyridin-3-yl-1H-pyrazol-4-yl)pyridine] | 100 |
| c1cncc(-n2cc(-c3cccc(-c4nccnn4)n3)cn2)c1 [Example 7, 3-[6-(1-Pyridin-3-yl-1H-pyrazol-4-yl)pyridin-2-yl]-[1,2,4]triazine] | 100 |

tested on: larvae of the mustard beetle (Phaedon cochleariae); test: Phaedon test (spray treatment); assay type: in vivo; conditions: application rate 500 g/ha; after 7 days; Chinese cabbage leaf discs
Excerpt: Solvents: 78 parts by weight of acetone • • 1.5 parts by weight of dimethylformamide Emulsifier: 0.5 part by weight of alkylaryl polyglycol ether […] Discs of leaves of Chinese cabbage (Brassica pekinensis) are sprayed with an active compound preparation of the desired concentration and, after drying, populated with larvae of the mustard beetle (Phaedon cochleariae).

| SMILES | activity (effect in %, beetle larvae killed) [%] |
| --- | --- |
| Cn1c(C(F)(F)F)nn(-c2cccc(-c3cnn(-c4cccnc4)c3)n2)c1=O [Example 16] | 100 |
| FC(F)(F)c1ccc(-c2cnn(-c3cccnc3)c2)nc1 [Example 22] | 100 |

tested on: greenhouse red spider mite (Tetranychus urticae); test: Tetranychus test; OP-resistant (spray treatment); assay type: in vivo; conditions: application rate 500 g/ha, after 6 days, bean leaf discs
Method: as §1, §2
To produce a suitable preparation of active compound, 1 part by weight of active compound is mixed with the stated amounts of solvents and emulsifier, and the concentrate is diluted with emulsifier-containing water to the desired concentration. Discs of bean leaves (Phaseolus vulgaris) which are infested by all stages of the greenhouse red spider mite (Tetranychus urticae) are sprayed with an active compound preparation of the desired concentration.
After 6 days, the effect in % is determined. 100% means that all spider mites have been killed; 0% means that none of the spider mites has been killed.

| SMILES | activity (effect in %, spider mites killed) [%] |
| --- | --- |
| c1cnc(-c2cccc(-c3cnn(-c4cncnc4)c3)n2)nc1 [Example 34] | 90 |

tested on: not listed separately; test: logP determination (neutral / HCOOH); conditions: HCOOH

| SMILES | logP (HCOOH) |
| --- | --- |
| c1cncc(-n2cc(-c3cc[nH]n3)cn2)c1 [Example 98, 1′-(Pyridin-3-yl)-1H,1′H-3,4′-bipyrazole] | 0.78 |

same assay, conditions: HCOOH (formic acid), logP (HCOOH), HCOOH

| SMILES | chromatographic logP |
| --- | --- |
| Cn1c(C(F)(F)F)nn(-c2cccc(-c3cnn(-c4cccnc4)c3)n2)c1=O [Example 16] | 2.1 |
| FC(F)(F)c1ccc(-c2cnn(-c3cccnc3)c2)nc1 [Example 22] | 2.38 |
| COC(=O)CN(C)c1cccc(-c2cnn(-c3cccnc3)c2)n1 [Example 32] | 2.18 |
| c1cnc(-c2cccc(-c3cnn(-c4cncnc4)c3)n2)nc1 [Example 34] | 1.17 |
| CC(=O)NC(NO)c1cccc(-c2cnn(-c3cccnc3)c2)n1 (centres unmarked) [Example 78] | 1.49 |
| Cc1cnn(-c2cccc(-c3cnn(-c4cccnc4)c3)n2)c1 [Example 79] | 2.59 |
| CCOc1cc(OCC)nc(-c2nccc(-c3cnn(-c4cccnc4)c3)n2)n1 [Example 82] | 2.23 |
| CN(C)C(=O)c1nc(-c2cnn(-c3cccnc3)c2)cs1 [Example 83] | 1.51 |
| c1cncc(-n2cc(-c3cccc(C4=NCCO4)n3)cn2)c1 [Example 84] | 0.9 |
| Nc1cccc(-c2cnn(-c3cccnc3)c2)n1 [Example 86] | 0.29 |
| O=C(NCC(F)(F)F)c1ccc(-c2cnn(-c3cccnc3)c2)nc1 [Example 87] | 1.53 |
| N#Cc1cncc(-n2cc(-c3cccc(-c4ncccn4)n3)cn2)c1 [Example 88] | 1.91 |
| O=c1ccccn1-c1cccc(-c2cnn(-c3cccnc3)c2)n1 [Example 89] | 1.37 |
| c1cncc(-n2cc(-c3cccc(C4OCC5(CCC5)O4)n3)cn2)c1 (centres unmarked) [Example 90] | 2.37 |
| COC(=N)c1cccc(-c2cnn(-c3cccnc3)c2)n1 [Example 91] | 0.84 |
| c1cnc(-c2ccnn2-c2cnn(-c3cccnc3)c2)nc1 [Example 93] | 1.16 |
| CC(=O)Nc1cccc(-c2cnn(-c3cccnc3)c2)n1 [Example 94] | 1.31 |

| SMILES | chromatographic logP |
| --- | --- |
| c1cncc(-n2cc(-c3nccs3)cn2)c1 [Example 95] | 1.32 |
| c1cncc(-n2cc(-c3cccc(-c4nnn[nH]4)n3)cn2)c1 [Example 96] | 1.36 |
| N#CCNC(=O)c1ccc(-c2cnn(-c3cccnc3)c2)nc1 [Example 97] | 0.95 |
| c1cncc(-n2cc(-c3cc[nH]n3)cn2)c1 [Example 98, 1′-(Pyridin-3-yl)-1H,1′H-3,4′-bipyrazole] | 0.79 |
| CCOC(=O)c1cccc(-c2cnn(-c3cccnc3)c2)n1 [Example 99] | 1.83 |
| CN1CCN(C(=O)c2cccc(-c3cnn(-c4cccnc4)c3)n2)CC1 [Example 100] | 0.46 |
| c1cncc(-n2cc(-c3ccncc3)cn2)c1 [Example 101] | 0.01 |
| O=[N+]([O-])c1cnc(-n2ccc(-c3cnn(-c4cccnc4)c3)n2)nc1 [Example 102] | 1.64 |
| O=C(Nc1cccc(-c2cnn(-c3cccnc3)c2)n1)C(F)(F)F [Example 103] | 2.21 |
| Fc1cccc(-c2cnn(-c3cccnc3)c2)n1 [Example 105] | 1.77 |
| Nc1cccc(-c2cnn(-c3cncc(F)c3)c2)n1 [Example 106] | 0.64 |
| FC(F)(F)c1cccc(-c2cnn(-c3cncnc3)c2)n1 [Example 107] | 2.36 |
| N#Cc1cccc(-c2cnn(-c3cncc(F)c3)c2)n1 [Example 108] | 2.2 |
| O=C(NCC(F)(F)F)c1cnc(-c2cnn(-c3cccnc3)c2)cc1C(F)(F)F [Example 109] | 2.11 |
| O=Cc1cccc(-c2cnn(-c3cccnc3)c2)n1 [Example 110] | 1.56 |
| c1cncc(-n2cc(-c3cnn(-c4cccnc4)c3)cn2)c1 [Example 112] | 1.37 |

same assay, conditions: HCOOH, logP (HCOOH)

| SMILES | logP |
| --- | --- |
| COCC(=O)c1cccc(-c2cnn(-c3cccnc3)c2)n1 [Example 85, 2-Methoxy-1-[6-(1-pyridin-3-yl-1H-pyrazol-4-yl)pyridin-2-yl]ethanone] | 1.66 |

same assay, conditions: logP (neutral), neutral

| SMILES | logP |
| --- | --- |
| c1cncc(-n2cc(-c3cccc(C4=NCCO4)n3)cn2)c1 [Example 84] | 1.45 |
| Nc1cccc(-c2cnn(-c3cccnc3)c2)n1 [Example 86] | 1.3 |
| O=C(NCC(F)(F)F)c1ccc(-c2cnn(-c3cccnc3)c2)nc1 [Example 87] | 1.69 |
| c1cncc(-n2cc(-c3cccc(C4OCC5(CCC5)O4)n3)cn2)c1 (centres unmarked) [Example 90] | 2.53 |
| COCC(F)c1cccc(-c2cnn(-c3cccnc3)c2)n1 (centres unmarked) [Example 92] | 1.98 |
| c1cncc(-n2cc(-c3cccc(-c4nnn[nH]4)n3)cn2)c1 [Example 96] | 0.32 |
| N#CCNC(=O)c1ccc(-c2cnn(-c3cccnc3)c2)nc1 [Example 97] | 1.2 |
| CCOC(=O)c1cccc(-c2cnn(-c3cccnc3)c2)n1 [Example 99] | 1.96 |
| c1cncc(-n2cc(-c3ccncc3)cn2)c1 [Example 101] | 1.24 |
| O=C(Nc1cccc(-c2cnn(-c3cccnc3)c2)n1)C(F)(F)F [Example 103] | 2.28 |
| Nc1cccc(-c2cnn(-c3cncc(F)c3)c2)n1 [Example 106] | 1.59 |
| FC(F)(F)c1cccc(-c2cnn(-c3cncnc3)c2)n1 [Example 107] | 2.38 |
| O=C(NCC(F)(F)F)c1cnc(-c2cnn(-c3cccnc3)c2)cc1C(F)(F)F [Example 109] | 2.18 |
